Reference: patent US6472390B1, “Use of therapeutic dosages for nitric oxide donors which do not significantly lower blood pressure or pulmonary artery pressure” (Duke University, priority 2001, dated 2002)

Legend:
[1] = system: patient with anxiety and stress; assay: patient with anxiety and stress (Example XVIII); type: in vivo, human; settings: ½ to 1 inch patch 3×/day titrated to avoid change in blood pressure or headache
mouse aorta rings = assay: vascular ring bioassay on mouse aorta rings (Example I)
Excerpt: The assay involves a chamber of solution into which mouse aorta ring attached to a force transducer is placed where the solution is bubbled with 21% O2/5% CO2/balance N2. The force transducer moves a pen in response to contraction and relaxation effects to give a tracing of forces (tension) in the Y-direction versus time in the X-direction on a chart. Various agents as described later are applied to the aorta rings to give to give contraction and relaxation effects. Tracings of force (tension) in the Y-direction versus time in the X-direction are obtained with upward direction indicating contraction and downward direction indicating relaxation. […] On FIG. 1, “E” means application of phenylephrine, a constricting agent, and the concentrations thereof at particular times are denoted; “ACh” means application of acetyIcholine (which causes a relaxation effect in response to endogenous nitric oxide) and the concentration thereof at particular times are denoted; and “GSNO” means application of S-nitrosoglutathione, an NO donor, and the concentrations thereof at particular times are denoted. […] As further shown in FIG. 1, flushing is then carried out three times then and one more time; the flushing is carried out (with Krebs-Henseleit solution described hereinafter in Example III) and removes the acetylcholine. As further shown in FIG. 1, phenylephrine is then applied starting at a concentration of 10^−7 molar increasing to a concentration of 10^−5.5 molar. […] As further shown in FIG. 1, flushing is then carried out three times (with Krebs-Henseleit solution); and then one more time with the same flushing agent; this flushing removes the S-nitrosoglutathione.

[2] = system: artery rings from New Zealand white rabbits; assay: vascular ring bioassay on rabbit artery rings (Example II); settings: NO donor 1 μM
Method: A vascular ring bioassay was carried out as follows: Artery rings (3 mm) were harvested from New Zealand white rabbits and mounted in 25 ml tissue baths filled with Krebs-Henseleit buffer and bubbled with 21% O2/5% CO2/balance N2. Isometric tension was measured. All rings in the study were suspended with similar baseline levels of tension (˜2 g). Tissue baths were thoroughly rinsed with fresh buffer between interventions. Three runs were carried out. In one run denoted the control, no additive was added. […] In a third run, SIN1 was added to provide a concentration of 1 μM. […] After flushing with solution as described in Example I, phenylephrine was then added in each case to provide a concentration of 1 to 10 μM. The results are shown in FIG. 2 where percent increase in tone is indicated on the Y-axis and additive or absence thereof (control) is indicated on the X-axis.

[3] = system: isolated buffer-perfused lungs (IPL) of rabbits; assay: isolated buffer-perfused rabbit lung, pulmonary artery pressure (Example III); settings: for change in mean pulmonary artery pressure (Ppa) on injection of NO donor: GSNO 50 μM or SIN1 100 μM injected into the recirculating system; for constriction (change in Ppa) by serotonin: serotonin 1 micromolar sixty minutes after GSNO 50 μM or SIN1 100 μM
[4] = system: patient with recurrent episodes of acute vasospastic angina; assay: patient with acute vasospastic angina (Example VII); type: in vivo, human
Method: A person who complains of recurrent episodes of acute vasospastic angina is treated with S-nitrosoglutathione (GSNO) at 1-1,000 μg orally 4×/day. Blood pressure is unchanged and acute symptoms resolve. In addition, the frequency of vasospastic chest pain decreases over the following three weeks.

[5] = system: patient with primary pulmonary hypertension class II; assay: patient with primary pulmonary hypertension (Example VIII); type: in vivo, human
Method: […] They are given 10 mM GSNO in 1 cc saline nebulized 3×/day. Symptoms of shortness of breath resolve but pulmonary artery pressure and systemic pressure are unchanged with acute administration. After four months of therapy, pulmonary artery pressure has dropped by 5 mm of mercury and the patient's symptoms have improved. The patient is subsequently given oral GSNO at 10 μg TID and doses are empirically changed to prevent any significant change in blood pressure.

[6] = system: patient with poorly controlled asthma; assay: patient with poorly controlled asthma (Example IX); type: in vivo, human
Excerpt: A person with poorly controlled asthma presents with an exacerbation. […] The frequency of asthma exacerbations decline.

[7] = system: patient with a transient ischemic attack; assay: patient with transient ischemic attack (Example XIII); type: in vivo, human
Method: A person presents with a transient ischemic attack evidenced by confusion and headache. Carotid dopplers show 98% new occlusion of the right carotid artery. Systolic blood pressure is 180 mm of mercury. They are given an infusion intravenously of S-nitrosocysteinyl glycine 10 μg with resolution of the headache. The systemic blood pressure remains 175 mm of mercury. Symptoms of headache and confusion resolve. The patient is then maintained on oral S-nitrosoglutathione 1-10 μg 3×/day with no recurrence of transient ischemic symptoms.

[8] = system: patient with claudication and a leg ulcer; assay: patient with claudication and leg ulcer (Example XV); type: in vivo, human
Method: A person with risk factors of hypertension, diabetes, and hypercholestolemia and a strong family history of atherosclerosis presents with claudication and a leg ulcer. They are begun on an infusion of (SIN-1) 0.3 μm/kg per hour for a total of 1 mg with no change in blood pressure. Symptoms of rest pain resolve. They are then begun on oral S-nitrosoglutathione 1-10 μg 3×/day with improvement of duration of exercise and no recurrence of rest pain.

[9] = system: patient with uncontrolled hypertension; assay: patient with uncontrolled hypertension (Example XVI); type: in vivo, human; settings: for exacerbation on maintenance: maintained on GSNO together with ethyl nitrite; for blood pressure (acute): oral GSNO 1 to 10 micrograms QID together with ethyl nitrite 0.025% (1 cc) 3×/day; for blood pressure (acute) / blood pressure: baseline 200/110; for blood pressure: over the following two weeks, GSNO together with ethyl nitrite
Excerpt: A person with uncontrolled hypertension of 200/90 mm of mercury on a complex medical regimen including angiotension converting enzyme inhibitor, an alpha blocker, and beta blocker has a blood pressure of 200/110. They are begun on oral GSNO at 1 to 10 micrograms QID and ethyl nitrite 0.025% (1 cc) 3×/day. […] However, over the following two weeks the blood pressure falls to 170/100 consistent with better management of their disease.

[10] = system: patient with severe three vessel disease; assay: patient with severe three vessel coronary disease (Example XVII); type: in vivo, human; settings: oral, titrated so that resting systolic blood pressure does not change; three years
Excerpt: They do well with no symptoms of coronary disease over the following three years.

[11] = system: patient with congestive heart failure, hypotension and angina; assay: patient with congestive heart failure, hypotension and angina, intraarterial infusion (Example XIX); type: in vivo, human; settings: 200 nmol/kg via the brachial artery over 3 minutes
Method: A person with congestive heart failure develops hypotension and angina. S-nitrosoglutathione (200 nmol/kg) is infused via the brachial artery over 3 minutes. The angina resolves. The systolic blood pressure rises from 85 mm Hg to 100 mm Hg.

platelets = settings: doses that do not acutely drop blood pressure; cited from earlier work
dogs = assay: systemic infusion of NO donor into dogs, systemic blood pressure (Example VI); type: in vivo, dog; settings: without and with ischemia, S-nitrosocysteine 3 nmol/kg or S-nitrosoalbumin 10 nmol/kg infused systemically
Excerpt: In another case, S-nitrosocysteine (3 nmol/kg) or S-nitrosoalbumin (10 nmol/kg) is infused systemically into dogs. […] The response to S-nitrosoalbimim infusion is no different. The infusions of NO donors result in reaction with membrane receptors in red blood cells.

[12] = system: patient receiving erythropoietin who develops chest pain; assay: patient on erythropoietin with chest pain, NO donor infusion (Example XX); type: in vivo, human; settings: infusion 1-10 nmolkg/min
Excerpt: A person receiving erythropoietin to raise red blood count depleted because of treatment for cancer or renal failure, develops chest pain (caused by increased concentration of red blood cells).

[13] = system: patient with recurrent rectal spasm; assay: patient with recurrent rectal spasm (Example X); type: in vivo, human
Excerpt: A person with recurrent rectal spasm is given oral ethyl nitrite 0.125% in ethanol (1 cc) 3×/day. […] They then continued on this therapy with a decrease in incidence of rectal pain.

[14] = system: patient with esophageal spasm; assay: patient with esophageal spasm (Example XI); type: in vivo, human
Excerpt: A alcoholic with esophageal spasm is given 2 cc of 0.125% ethyl nitrite in ethanol 3×/day.

[15] = system: infant with pyloric stenosis; assay: infant with pyloric stenosis (Example XII); type: in vivo, human; settings: 2 cc of 0.125% in ethanol 3×/day
Excerpt: An infant with pyloric stenosis is given 2 cc of 0.125% ethyl nitrite in ethanol 3×/day.
Symptoms of intestinal pain resolve.

[16] = system: patient with symptoms of depression; assay: patient with depression (Example XIV); type: in vivo, human
Method: A person presents with symptoms of depression. They are begun on oral molsidomine (SIN-1) 10 μg per kg dose-adjusted so that blood pressure is unchanged. Over the following three weeks the symptoms of depression resolve and the patient is maintained on this dose with no recurrence.

[17] = regardless of dosage; cited from earlier work
[18] = system: patient receiving erythropoietin who develops chest pain; assay: patient on erythropoietin with chest pain, thiol (Example XXI); type: in vivo, human
Excerpt: A person receiving erythropoietin to raise red blood count depleted by renal failure, develops chest pain (caused by increased concentration of red blood cells).

rats = assay: infusion into rats, mean arterial blood pressure and heart rate (Example IV); type: in vivo, rat
Method: Rats (n=4) were infused via femoral vein with 200 nmol/kg of S-nitrosothiol (S-nitrosohemoglobin). Mean arterial blood pressure (MAP) and heart rate (HR) were measured.
In another case, rats (n=4) were infused via femoral artery with 200 nmol/kg of S-nitrosothiol (S-nitrosohemoglobin). Mean arterial blood pressure (MAP) and heart rate (HR) were measured.

[19] = oral 0.125% in ethanol (1 cc) 3×/day
[20] = infusion 0.3 μm/kg per hour for a total of 1 mg
[21] = 200 nmol/kg via femoral artery, rats
[22] = 200 nmol/kg via femoral vein, rats

Question: For O=[N+]([O-])OCC(CO[N+](=O)[O-])O[N+](=O)[O-] [nitroglycerin], which “symptoms of anxiety and stress” value [1] is on record?
Answer: alleviated in 4 days

Question: With N[C@@H](CCC(=O)N[C@@H](CSN=O)C(=O)NCC(=O)O)C(=O)O [GSNO, S-nitrosoglutathione] as the compound, how does the “effect on tension of phenylephrine-contracted ring” value (mouse aorta rings; S-nitrosoglutathione 1 nanomolar increasing to 10 micromolar) read?
Answer: relaxing (contraction-attenuating) effect

Question: And the “contracting response to phenylephrine after pretreatment and flushing” value (mouse aorta rings; phenylephrine 10^-7 to 10^-5 molar after S-nitrosoglutathione removed by flushing)?
Answer: does not cause a contracting response

Question: And the “effect on resting tone (relaxing effect)” value [2]?
Answer: no effect on resting tone

Question: And the “change in mean pulmonary artery pressure (Ppa) on injection of NO donor” value [3]?
Answer: did not cause change in Ppa

Question: What about the “constriction (change in Ppa) by serotonin” value [3] of the same compound?
Answer: prevented constriction

Question: What about the “acute symptoms of vasospastic angina” value ([4]; 1-1,000 μg orally 4×/day) of the same compound?
Answer: resolve

Question: What about the blood pressure ([4]; 1-1,000 μg orally 4×/day) of the same compound?
Answer: unchanged

Question: And the “frequency of vasospastic chest pain” value ([4]; over the following three weeks)?
Answer: decreases

Question: What about the “symptoms of shortness of breath” value ([5]; 10 mM in 1 cc saline nebulized 3×/day) of the same compound?
Answer: resolve

Question: What about the “pulmonary artery pressure and systemic pressure” value ([5]; acute administration, 10 mM in 1 cc saline nebulized) of the same compound?
Answer: unchanged

Question: What about the “drop of pulmonary artery pressure” value ([5]; after four months of therapy) of the same compound?
Answer: 5 mm of mercury

Question: And the “patient's symptoms” value ([5]; after four months of therapy)?
Answer: improved

Question: And the “frequency of asthma exacerbations” value ([6]; oral 10 μg Q 6 hours, continued)?
Answer: decline

Question: And the “recurrence of transient ischemic symptoms” value ([7]; oral 1-10 μg 3×/day maintenance)?
Answer: no recurrence

Question: What about the duration of exercise ([8]; oral 1-10 μg 3×/day) of the same compound?
Answer: improvement

Question: And the “recurrence of rest pain” value ([8]; oral 1-10 μg 3×/day)?
Answer: no recurrence

Question: And the exacerbation on maintenance [9]?
Answer: no further exacerbation

Question: What about the “blood pressure (acute)” value [9] of the same compound?
Answer: does not change

Question: And the blood pressure [9]?
Answer: 170/100

Question: What about the “symptoms of coronary disease” value [10] of the same compound?
Answer: no symptoms

Question: What about the angina [11] of the same compound?
Answer: resolves

Question: What about the “systolic blood pressure after infusion” value ([11]; rises from 85 mm Hg) of the same compound?
Answer: 100 mm Hg

Question: And the thromboembolic events (platelets)?
Answer: inhibit other thromboembolic events

Question: Which systemic blood pressure (dogs) does the source give for N[C@@H](CSN=O)C(=O)O [S-nitrosocysteine] here?
Answer: no effect

Question: Which results are given for CCOC(=O)[C@@H](N)CSN=O [S-nitrosocysteine ethyl ester]?
Answer: airway tone ([6]; inhaled 1-1,000 μg nebulized in 10 cc): does not significantly improve; acute episode of asthma ([6]; over the following three days): brought under control; blood pressure [12]: without a change; chest pain [12]: alleviating chest pain

Question: Which “incidence of rectal pain” value ([13]; continued therapy) does the source give for CCON=O [ethyl nitrite] here?
Answer: decrease

Question: What about the blood pressure [13, 19] of the same compound?
Answer: does not change

Question: What about the “symptoms of rectal pain” value [13, 19] of the same compound?
Answer: resolve

Question: And the “symptoms of esophageal pain” value ([14]; 2 cc of 0.125% in ethanol 3×/day)?
Answer: resolve

Question: And the recurrence of symptoms ([14]; same maintenance dose)?
Answer: do not recur

Question: And the “symptoms of intestinal pain” value [15]?
Answer: resolve

Question: And the exacerbation on maintenance [9]?
Answer: no further exacerbation

Question: And the “blood pressure (acute)” value [9]?
Answer: does not change

Question: And the blood pressure [9]?
Answer: 170/100

Question: For CCOC(=O)[N-]c1cn(N2CCOCC2)n[o+]1 [SIN1, molsidomine], which “effect on resting tone (relaxing effect)” value [2] is on record?
Answer: did not cause a relaxing effect

Question: What about the “change in mean pulmonary artery pressure (Ppa) on injection of NO donor” value [3] of the same compound?
Answer: did not cause change in Ppa

Question: And the “constriction (change in Ppa) by serotonin” value [3]?
Answer: prevented constriction

Question: What about the recurrence of depression ([16]; maintained on this dose) of the same compound?
Answer: no recurrence

Question: And the symptoms of depression ([16]; oral 10 μg per kg dose-adjusted so that blood pressure is unchanged, over three weeks)?
Answer: resolve

Question: And the blood pressure [8, 20]?
Answer: no change

Question: What about the “symptoms of rest pain” value [8, 20] of the same compound?
Answer: resolve

Question: Which “acute lowering of mean arterial blood pressure” value [17] does the source give for O=C(Oc1cccc(CO[N+](=O)[O-])c1)c1ccccc1O [B-NOD, 2-hydroxybenzoic acid 3-nitrooxymethylphenyl ester] here?
Answer: ≤ 10%

Question: For CNC[C@H](O)c1cccc(O)c1 [phenylephrine], which “effect on tension of ring” value (mouse aorta rings; phenylephrine 10^-8 molar increasing to 10^-5.5 molar) is on record?
Answer: contracting effect

Question: What does the source list for N[C@@H](CSN=O)C(=O)NCC(=O)O [S-nitrosocysteinyl glycine]?
Answer: systemic blood pressure ([7]; after intravenous infusion 10 μg, systolic 180 mm of mercury before): 175 mm of mercury; symptoms of headache and confusion ([7]; intravenous infusion 10 μg): resolve

Question: For CC(=O)N[C@@H](CS)C(=O)O [N-acetylcysteine], which frequency of angina ([18]; 600 ng, PO, TID) is on record?
Answer: decreases

Question: And the blood pressure ([18]; 600 ng, PO, TID, over three weeks)?
Answer: drops

Question: What about the blood pressure ([18]; infusion 50 ng/kg) of the same compound?
Answer: without a change

Question: And the chest pain ([18]; infusion 50 ng/kg)?
Answer: alleviating their chest pain

Question: Which heart rate (rats; [21]) does the source give for S-nitrosohemoglobin here?
Answer: increased

Question: And the “mean arterial blood pressure” value (rats; [21])?
Answer: increased

Question: And the heart rate (rats; [22])?
Answer: no effect

Question: What about the “resting blood pressure (MAP)” value (rats; [22]) of the same compound?
Answer: no effect

Question: What about the blood pressure (rats; higher doses of S-nitrosothiol) of the same compound?
Answer: fall
